# Laboratory results from patent US4005214A (Hoffmann-La Roche Inc., priority 1974, dated 1977).
# Structures can show the parent of a compound that is named as a salt.
# Tests used:
# [1] = pH of about 9; cited from earlier work
# [2] = acute toxicity in mice (LD 50); type: in vivo; conditions: mouse, in vivo, iv, intravenous administration, read-out: LD 50 (Lethal Dose) i.v.
# [3] = test system: mice; assay: acute toxicity in mice (LD 50); type: in vivo; conditions: for LD 50 (Lethal Dose) s.c.: subcutaneous administration
# [4] = test system: Escherichia coli; assay: activity (CD 50) against Escherichia coli upon subcutaneous administration to mice; type: in vivo
Structure (SMILES),stability at high pH [1],LD50 [2],LD 50 (Lethal Dose) s.c. [3],"ED50 ([4]; sc, read-out: CD 50 (Curative Dose))",LD 50 (Lethal Dose) i.v. ([3]; intravenous administration),CD 50 (Curative Dose) [4]
"CC1(C)S[C@@H]2[C@H](NC(=O)[C@H](N)c3ccc(O)cc3)C(=O)N2[C@H]1C(=O)O [Amoxicillin, D-(-)-alpha-amino-parahydroxybenzyl penicillin]",very unstable,,,,,
"CC1(C)S[C@@H]2[C@H](NC(=O)[C@H](N)c3ccc(O)cc3)C(=O)N2[C@H]1C(=O)O [X, choline salt of amoxicillin]",,250 to 500 mg/kg,2000 to 4000 mg/kg,5.9 mg/kg,,
"CC1(C)S[C@@H]2[C@H](NC(=O)[C@H](N)c3ccc(O)cc3)C(=O)N2[C@H]1C(=O)O [Y, N-methyl-D-glucamine salt of amoxicillin]",,,> 5000 mg/kg,,500 to 1000 mg/kg,5.0 mg/kg
